Test results from US9586967B2, “Pyrrolo pyrimidine derivative” (ONO PHARMACEUTICAL CO., LTD., priority 2013, dated 2017).
Where a name gives a salt, the structure may show the parent alone.

Columns and labels:
Axl enzyme = target: T1, Axl enzyme (Homo sapiens, UniProt P30530); assay: Measurement of Axl inhibitory activity (in vitro test, LanthaScreen TR-FRET); assay type: biochemical; conditions: Fluorescein-Poly GT substrate, ATP, read-out: Axl enzyme inhibitory activity, value of 50% inhibition rate (IC50 value)
T1 sequence (P30530 26-894): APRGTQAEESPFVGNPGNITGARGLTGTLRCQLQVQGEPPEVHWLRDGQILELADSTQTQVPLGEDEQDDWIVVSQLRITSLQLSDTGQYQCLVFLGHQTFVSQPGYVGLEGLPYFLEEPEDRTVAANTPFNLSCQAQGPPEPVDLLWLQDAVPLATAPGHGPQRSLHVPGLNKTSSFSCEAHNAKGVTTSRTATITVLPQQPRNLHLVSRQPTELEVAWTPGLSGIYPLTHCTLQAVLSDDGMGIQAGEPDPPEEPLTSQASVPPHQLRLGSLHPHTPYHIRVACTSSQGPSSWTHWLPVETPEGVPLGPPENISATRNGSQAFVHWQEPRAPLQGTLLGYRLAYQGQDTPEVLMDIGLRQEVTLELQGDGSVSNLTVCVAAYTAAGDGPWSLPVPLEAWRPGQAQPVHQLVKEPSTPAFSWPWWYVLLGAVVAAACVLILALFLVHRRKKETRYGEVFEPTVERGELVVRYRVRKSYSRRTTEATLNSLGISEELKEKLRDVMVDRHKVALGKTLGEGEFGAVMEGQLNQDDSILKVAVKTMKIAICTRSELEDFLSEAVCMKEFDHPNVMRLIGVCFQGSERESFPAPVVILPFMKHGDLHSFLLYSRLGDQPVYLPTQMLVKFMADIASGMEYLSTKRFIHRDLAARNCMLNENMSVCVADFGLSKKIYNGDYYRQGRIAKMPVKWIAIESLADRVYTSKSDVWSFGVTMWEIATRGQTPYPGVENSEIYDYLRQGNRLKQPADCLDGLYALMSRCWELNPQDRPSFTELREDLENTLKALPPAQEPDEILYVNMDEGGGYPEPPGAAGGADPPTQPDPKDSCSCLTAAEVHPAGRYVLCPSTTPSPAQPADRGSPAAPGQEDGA
Procedure: Measurement of Axl Inhibitory Activity (In Vitro Test)
The Axl enzyme inhibitory activity was measured by using LanthaScreen (registered trademark) system (Invitrogen) based on the attached instruction. The reagents used are shown below.
Reaction buffer solution: A solution containing 50 mmol/L HEPES (pH7.5), 0.01% Brij35, 10 mmol/L MgCl2 and 1 mmol/L EGTA was prepared by using purified water.
Test substance solution: A solution containing a test compound of 5-fold concentration with respect to the final concentration was prepared by 20-fold diluting a DMSO solution of the test compound of each concentration with the reaction buffer solution.
Enzyme solution: A solution containing 400 ng/mL Axl enzyme was prepared by using the reaction buffer solution.
Substrate solution: A solution containing 45 μmmol/L ATP and 500 nmmol/L Fluorescein-Poly GT (Invitrogen) was prepared by using the reaction buffer solution.
Detection solution: A solution containing 20 mM EDTA and 4 nM PY20 (Invitrogen) was prepared by using Dilution B (Invitrogen).
A 10 mmol/L DMSO solution of the test compound was dispensed into a 96-well plate (Nunc), and, furthermore, a 3-fold dilution series was prepared using DMSO. In each well of the 96-well plate for measurement, 5 μL each of the reaction buffer solution containing DMSO was added to a Blank group and a medium group, and 5 μL of the test substance solution was added to the test substance group, respectively. […] After standing still, fluorescence intensity at 520 nm and 495 nm at the time of irradiation with exciting light of 340 nm was measured by using Analyst GT (Molecular Devices). The phosphorylation of the artificial substrate was quantified by Time-resolved Fluorescence Resonance Energy Transfer (TR-FRET). The TR-FRET ratio was calculated by dividing 520 nm fluorescence signal by 495 nm fluorescence signal for each well, and the inhibition rate (%) in the test compound group was calculated based on the following mathematical formula. […]

Ba/F3 Axl = assay: Measurement of proliferation suppression rate using mouse pro-B cell line (Ba/F3 Axl) stably expressing Axl; assay type: cell-based; conditions: BaF3, Ba/F3 Axl cells, 48 hours, CELLTITER-GLO, read-out: Proliferation suppression, value of 50% inhibition rate (IC50 value)
Procedure: Measurement of Proliferation Suppression Rate by Using Mouse Pro-B Cell Line (Ba/F3 Axl) Stably Expressing Axl
A 0.1 mmol/L DMSO solution of the test compound was dispensed into a 96-well plate, and further a 3-fold dilution series was prepared using DMSO. DMSO solutions of test compounds, having various concentrations, were further 500-fold diluted with a RPMI1640 medium (containing 10% HI-FBS and 1% penicillin) and a diluted solution of the test compound having […] with respect to the final concentration was prepared. In each well of the 96-well plate (BD Biosciences) for measurement, 50 μL of a RPMI medium was added to the Blank group, 50 μL of a RPMI medium containing 0.2% DMSO was added to the medium group, and 50 μL of the diluted solution of the test compound was added to the test compound group, respectively. Ba/F3 Axl was diluted with a medium to have a density of 2×10^5 cells/mL to prepare a cell suspension. In each well of the 96-well plate for measurement, 50 μL each of the RPMI medium was added to the Blank group, and 50 μL each of the cell suspension was added to the medium group and the test compound group, respectively, and the groups were stood still at 37° C. at 5% CO2 for 48 hours. After standing still, Relative Light Unit (RLU) was measured by using CELLTITER-GLO (registered trademark) LUMINESCENT CELL VIABILITY ASSAY (Promega). The measurement was carried out according to the attached instruction. To each well, 100 μL each of light-emitting solution was added. The plate was stirred at room temperature for 3 min and then stood still at room temperature with light shielded for 10 minutes, and RLU was measured by using Microplate Reader (SpectraMax M5e, Molecular Devices). The average values of RLU of the Blank group and the medium group were respectively calculated, and the proliferation suppression rate of the test compound group was calculated. Proliferation suppression rate (%)={1−(RLU of test compound group−A)/(B−A)}×100 [Math. 2] A: Average value of RLU of Blank group B: Average value of RLU of medium group […]

Structure (SMILES) | IC50 (Axl enzyme) [nM] | IC50 (Ba/F3 Axl) [nM]
Cn1cc(-c2ccc(NC(=O)c3cc4c(n(-c5ccccc5)c3=O)CC3(CC3)CC4=O)nc2)c2c(N)ncnc21 [Example 45(24), N-[5-(4-amino-7-methyl-7H-pyrrolo[2,3-d]pyrimidin-5-yl)-2-pyridinyl]-2′,5′-dioxo-1′-phenyl-2′,5′,6′,8′-tetrahydro-1′H-spiro[cyclopropane-1,7′-quinoline]-3′-carboxamide] | 9.7 | 7
CC#CC(=O)NCc1ccc(C(=O)Nc2ccc(-c3cn(C)c4ncnc(N)c34)cc2)c(=O)n1-c1ccccc1 [Example 26, N-[4-(4-amino-7-methyl-7H-pyrrolo[2,3-d]pyrimidine-5-yl)phenyl]-6-[(2-butynoylamino)methyl]-2-oxo-1-phenyl-1,2-dihydro-3-pyridinecarboxamide] | 1.7 | 0.8
Cn1cc(-c2ccc(NC(=O)c3cc(C(F)(F)F)cn(-c4ccccc4)c3=O)cc2)c2c(N)ncnc21 [Example 30, N-[4-(4-amino-7-methyl-7H-pyrrolo[2,3-d]pyrimidin-5-yl)phenyl]-2-oxo-1-phenyl-5-(trifluoromethyl)-1,2-dihydro-3-pyridinecarboxamide trifluoroacetate] | 8 | 10.6
